Source: patent US5891882A, “Benzopyranopyrrole and benzopyranopyridine α-1 adenergic compounds” (priority 1997, dated 1999)
Where a name gives a salt, the structure may show the parent alone.

Target: T1, α-1A adrenoreceptor (canine prostate smooth muscle) (Canis lupus, UniProt A0A8I3NK63)
T1 construct: antagonism of phenylephrine-induced contraction (pA2, Schild)
T1 sequence (A0A8I3NK63 1-466): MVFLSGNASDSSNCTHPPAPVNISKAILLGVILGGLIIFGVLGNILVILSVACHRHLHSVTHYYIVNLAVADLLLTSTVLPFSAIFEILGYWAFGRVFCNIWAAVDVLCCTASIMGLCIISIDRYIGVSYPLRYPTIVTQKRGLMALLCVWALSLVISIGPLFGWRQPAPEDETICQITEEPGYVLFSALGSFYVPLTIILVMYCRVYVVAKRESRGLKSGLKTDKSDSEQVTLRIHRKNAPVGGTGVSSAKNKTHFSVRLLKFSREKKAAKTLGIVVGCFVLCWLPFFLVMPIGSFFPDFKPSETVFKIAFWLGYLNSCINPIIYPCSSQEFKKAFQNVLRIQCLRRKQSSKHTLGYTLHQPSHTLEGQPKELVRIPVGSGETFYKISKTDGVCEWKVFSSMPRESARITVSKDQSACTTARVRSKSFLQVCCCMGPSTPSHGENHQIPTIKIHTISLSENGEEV
Assay: Functional antagonism: inhibition of phenylephrine-induced contraction of canine prostate strips
Type: cell-based
Conditions: Schild plot
Excerpt: Canine prostate strips were used in vitro as previously described (Hieble, J. P., Boyce, Caine, M., Fed Proc., 45: 2609-2614 (1986)), to determine antagonist potencies phenylephrine-induced contractions.
Functional assays indicative of pharmacologically defined α-1 adrenoreceptors were used to further characterize compounds. Inhibition of phenylephrine (PE)-induced contraction of canine prostate smooth muscle can be correlated with α-1A adrenoreceptor activation. […] For each of these models, agonist dose response curves were repeated against increasing concentrations of test agent to derive a Schild plot [log ([…]) against log (molarity of test agent)] to determine the pA2.
Canine prostate strips were used in vitro as previously described (Hieble, J. P., Boyce, A. J. and Caine, M., Fed. Proc., 45: 2609-2614 (1986)), to determine antagonist potencies against phenylephrine-induced contractions.

**Q.** For `COc1cccc2c1[C@@H]1CCN(CCCCn3c(=O)[nH]c4c(sc5cccnc54)c3=O)C[C@H]1CO2` (relative stereo) [Example 88, 3-[4-((±)-trans-10-Methoxy-1,3,4,4a,5,10b-hexahydro-2H-[1]-benzopyrano[3,4-c]pyrido-3-yl)butyl]-pyrido[2',3':4,5]thieno[3,2-d]pyrimidine-2,4(1H,3H)-dione hydrochloride], which “In Vitro Characterization (pA2) Dog Prostate” value is on record?
**A.** The value was 8.09.
